Data: article PMC3598007, “Interactions of zebrafish peptide YYb with the neuropeptide Y-family receptors Y4, Y7, Y8a, and Y8b” (Frontiers in Neuroscience, 2013)
Entries after “also recorded” stand apart in the source; their conditions may differ. No end group written: not given here.

How the values were obtained:
Y2 [1] = details: mammals; PYY3-36 formed by dipeptidyl peptidase IV cleavage; ref Mentlein et al., 1993; cited from earlier work
Text: Studies of how NPY affects appetite have been conducted in several fish species (Narnaware et al., [2000]; Narnaware and Peter, [2001]) and the NPY system seems to influence food intake, although the orexigenic receptor subtypes have not been identified in the fish species studied. The receptors that in mammals are involved in inhibition of appetite have been known in zebrafish for several years and there have been some studies investigating how PYY can inhibit feeding. In mammals it seems like the main inhibitory action on appetite is performed by PYY3-36. This peptide is the result of cleava ...

Y4 = details: PP, PYY and NPY compared, ref Lundell et al., 1995, 2002; cited from earlier work
Text: Functional and evolutionary studies in mammals have shown that their Y4 receptor has evolved a partnership with pancreatic polypeptide (PP). It should be stressed that PYYb is not the teleost fish ortholog of PP, instead the latter is a tandem duplicate of PYY that probably took place early in the tetrapod lineage. […] Thus, the PP-Y4 preference seems to have evolved in mammals (Lundell et al., [1995], [2002]). One aim of the present study was to investigate ...

Y4(Ya) = test: Competition binding with 125I-pPYY, zebrafish Y4 receptor (HEK cells); details: transiently expressed in HEK cells, competition with 125I-pPYY, 25 mM HEPES pH 7.4, 2.5 mM CaCl2, 1 mM MgCl2, bacitracin, 2 h incubation, mean ± SEM, n = 3 (zfNPY), 3 (zfPYYa), 3 (zfPYYb)
Text: (§1) The zebrafish receptors have previously been cloned and expressed in cell lines by our laboratory. The zebrafish Y8a and Y8b receptors were inserted in a pTEJ-8 vector and stably expressed in CHO-cells (Ringvall et al., [1997]; Berglund et al., [2000]). Y7 has been inserted in a pCEP4 vector and semi-stably expressed in HEK 293-EBNA cells (Fredriksson et al., [2004]). The zebrafish Y4 receptor coding region was inserted in a pTEJ-8 vector (Starback et al., [1999]) and transient expressed in HEK cells. The cell-lines were grown according to the recommendations of the manufacturer. Ninety percent of the confluent cells were harvested and mixed with 100 μl 25 mM HEPES buffer (pH 7.4 and 2.5 mM CaCl2 and 1 mM MgCl2) and stored at −80°C.
(§2) Thawed aliquots of transfected cells were mixed with 1 ml 25 mM HEPES buffer (pH 7.4, 2.5 mM CaCl2, 1 mM MgCl2 and 0.2 g/l bacitracin). The samples were homogenized and another 1 ml buffer was added. ^125I-pPYY was used as radioligand in all experiments, radioligand, and unlabeled ligands (serial concentrations of zfNPY, zfPYYa, and zfPYYb respectively) and cells were mixed at the proportion 2:1:1 in 100 μl reactions followed by 2 h incubation. […] The radioactivity was measured using a Wallac 1450 Betaplate counter and the results were analyzed using Prism 4.0 software package (GraphPad, San Diego, CA, USA). […]

Y8b (Yb) = test: Competition binding with 125I-pPYY, zebrafish Y8b receptor (CHO-cells); details: stably expressed in CHO-cells, competition with 125I-pPYY, 25 mM HEPES pH 7.4, 2.5 mM CaCl2, 1 mM MgCl2, bacitracin, 2 h incubation, mean ± SEM, n = 4 (zfNPY), 3 (zfPYYa), 4 (zfPYYb)
Text: as §1, §2

Y7 = test: Competition binding with 125I-pPYY, zebrafish Y7 receptor (HEK 293-EBNA cells); details: for Ki: zebrafish Y7, semi-stably expressed in HEK 293-EBNA cells, competition with 125I-pPYY, 25 mM HEPES pH 7.4, 2.5 mM CaCl2, 1 mM MgCl2, bacitracin, 2 h incubation, mean ± SEM, n = 5 (zfNPY), 3 (zfPYYa), 5 (zfPYYb)
Text: as §1
Thawed aliquots of transfected cells were mixed with 1 ml 25 mM HEPES buffer (pH 7.4, 2.5 mM CaCl2, 1 mM MgCl2 and 0.2 g/l bacitracin). The samples were homogenized and another 1 ml buffer was added. ^125I-pPYY was used as radioligand in all experiments, radioligand, and unlabeled ligands (serial concentrations of zfNPY, zfPYYa, and zfPYYb respectively) and cells were mixed at the proportion 2:1:1 in 100 μl reactions followed by 2 h incubation. The zebrafish NPY (zfNPY) and PYYa (zfPYYa) were synthesized at Eli Lilly and Company. The zebrafish PYYb (zfPYYb) was supplied in a crude form by GL Biochem Shanghai and purified as previously described (Fredriksson et al., [2006]). The incubation was terminated by rapid filtration through GF/C filters pre-soaked in 0.3% polyethyleneimin, using a TOMTEC cell harvester (Orange, CT, USA). The filters were washed with 50 mM Tris-HCl (pH 7.4) and dried at 50°C for 30 min. Filters were treated with MeltiLex A melt on scintillator sheets (Perkin Elmer, Boston, MA, USA). The radioactivity was measured using a Wallac 1450 Betaplate counter and the results were analyzed using Prism 4.0 software package (GraphPad, San Diego, CA, USA). The pKi values were compared to each other using One-Way ANOVA followed by Tukey-Kramer Multiple Comparison Test (GraphPad, San Diego, CA, USA).
The zebrafish receptors were expressed in mammalian cells and the membrane fraction was used for binding experiments. Competition binding experiments were performed using the three endogenous ligands NPY, PYYa and PYYb in competition with iodinated porcine PYY. The mature 36 amino acid PYYb peptide has fourteen differences compared to NPY and seven when compared with PYYa (see Figure 1). PYYa differs from NPY at nine positions. Thus, PYYb has clearly changed more than PYYa after duplication of their common ancestral gene.

Y8a (Yc) = test: Competition binding with 125I-pPYY, zebrafish Y8a receptor (CHO-cells)
Text: as §1, §2

Y2 [2] = details: zebrafish Y2, ref Fredriksson et al., 2006, cited from earlier work
Text: The neuropeptide Y (NPY) system influences numerous physiological functions including feeding behavior, endocrine regulation, and cardiovascular regulation. In jawed vertebrates it consists of 3–4 peptides and 4–7 receptors. Teleost fishes have unique duplicates of NPY and PYY as well as the Y8 receptor. In the zebrafish, the NPY system consists of the peptides NPYa, PYYa, and PYYb (NPYb appears to have been lost) and at least seven NPY receptors: Y1, Y2, Y2-2, Y4, Y7, Y8a, and Y8b. Previously PYYb binding has been reported for Y2 and Y2-2. To search for peptide-receptor preferences, we have i ... || The main objective of this study was to examine the affinity of PYYb for the Y4, Y7, Y8a, and Y8b receptors, and to compare it to the other two endogenous peptides, NPY and PYYa. […] The zebrafish Y7 receptor is 50% identical to zebrafish Y2 and PYYa has low affinity for both of these. This observation will be interesting to correlate with the physiological roles of the peptides and receptors in z ... || (+ 1 further places)

PYY3-36
selectivity for Y2 over the other receptor subtypes (Y2 [1]): selectivity for Y2 over the other receptor subtypes

chicken PP: chicken pancreatic polypeptide (GPSQPTYPGDDAPVEDLIRFYNDLQQYLNVVTRHRY; ends and bridges not checked; UniProt P68248 26-61, looked up)
affinity for chicken Y4 (Y4): equal affinities

zfNPY: endogenous zebrafish neuropeptide Y, synthesized at Eli Lilly and Company
Ki (Y4(Ya)): 0.033 ± 0.005 nM | Ki (Y8b (Yb)): 0.13 ± 0.04 nM | Ki (Y7): 0.57 ± 0.16 nM | Ki (Y8a (Yc); zebrafish Y8a (Yc), stably expressed in CHO-cells, competition with 125I-pPYY, 25 mM HEPES pH 7.4, 2.5 mM CaCl2, 1 mM MgCl2, bacitracin, 2 h incubation, mean ± SEM, n = 7 (zfNPY), 6 (zfPYYa), 4 (zfPYYb)): 0.21 ± 0.07 nM

zfPYYa: endogenous zebrafish PYYa, synthesized at Eli Lilly and Company
Ki (Y4(Ya)): 0.034 ± 0.009 nM | Ki (Y8b (Yb)): 0.25 ± 0.12 nM | Ki (Y7): 1.82 nM | fold lower affinity for Y7 than NPY and PYYb (Y7; zebrafish Y7, PYYa vs NPY and PYYb): 3 fold | affinity for Y7 compared with NPY and PYYb (Y7; zebrafish Y7, pKi compared by One-Way ANOVA, Tukey-Kramer): significantly lower affinity; also recorded: low affinity | affinity for Y2 (Y2 [2]; previously reported): 3 nM | preference of Y2 / affinity for Y2 (Y2 [2]): low affinity | affinity for Y8a compared with the other two peptides (Y8a (Yc); zebrafish Y8a, PYYa vs NPY and PYYb): slightly lower than the other two peptides
